{
  "source": "EPA's ToxRefDB 2",
  "key": {"[1]": {"test_system": "rat", "details": "Multigenerational reproductive toxicity study, sprague dawley, Oral, Feed, dose end: 2 generation"}, "[2]": {"test_system": "rat", "details": "Combined chronic toxicity/carcinogenicity, sprague dawley, Oral, Feed, dose end: 104 week"}, "[3]": {"test_system": "rat", "details": "Prenatal developmental toxicity study, sprague dawley, Oral, Gavage/Intubation, dose end: 16 GD"}, "[4]": {"test_system": "rat", "details": "Subchronic oral toxicity in rodents, sprague dawley, Feed, dose end: 90 day, group: systemic"}, "[5]": {"test_system": "dog", "details": "Chronic toxicity; beagle; Oral; Feed; dose end: 52 week; group: systemic; systemic / organ weight / liver / absolute + systemic / organ weight / liver / relative to body weight + systemic / pathology gross / liver…"}, "[6]": {"test_system": "rat", "details": "Subchronic oral toxicity in rodents, sprague dawley, Feed, dose end: 13 week, group: systemic"}, "[7]": {"test_system": "mouse", "details": "Subchronic oral toxicity in rodents, other, Feed, dose end: 13 week, group: systemic"}, "[8]": {"test_system": "rabbit", "details": "Prenatal developmental toxicity study, new zealand white, Oral, Gavage/Intubation, dose end: 18 GD"}, "[9]": {"test_system": "mouse", "details": "Sub-acute repeat dose toxicity, other, Oral, Feed, dose end: 4 week, group: systemic"}, "[10]": {"test_system": "mouse", "details": "Carcinogenicity; b6c3f1; Oral; Feed; dose end: 104 week; group: systemic; systemic / pathology microscopic / liver / cellular alteration + systemic / pathology microscopic / liver / fatty change + systemic / …"}, "[11]": {"details": "group: offspring, developmental / developmental malformation / trunk / [other] + developmental / developmental malformation / ureter / hydroureter + systemic…"}, "[12]": {"details": "group: parental, systemic / in life observation / body weight / body weight + systemic / organ weight / pituitary gland / relative to body weight + systemic…"}, "[13]": {"details": "group: parental, systemic / organ weight / pituitary gland / relative to body weight + systemic / in life observation / water consumption / water consumption…"}, "[14]": {"details": "group: cholinesterase, cholinesterase / cholinesterase / cholinesterase / erythrocyte cholinesterase (che) + cholinesterase / cholinesterase / cholinesterase / …"}, "[15]": {"details": "group: systemic, systemic / pathology microscopic / liver / eosinophilic focus"}, "[16]": {"details": "group: systemic, systemic / pathology microscopic / liver / eosinophilic focus + systemic / pathology microscopic / liver / hypertrophy"}, "[17]": {"details": "group: developmental, developmental / developmental malformation / bone / cervical + systemic / in life observation / body weight / fetal weight"}, "[18]": {"details": "group: developmental, developmental / developmental malformation / bone / cervical + systemic / in life observation / body weight / fetal weight + developmental…"}, "[19]": {"details": "group: maternal, systemic / in life observation / body weight / body weight gain + systemic / in life observation / food consumption / food consumption + …"}, "[20]": {"details": "systemic / pathology microscopic / liver / hypertrophy"}, "[21]": {"details": "systemic / organ weight / liver / absolute"}, "[22]": {"details": "systemic / organ weight / liver / absolute + systemic / organ weight / kidney / absolute + systemic / organ weight / kidney / relative to …"}, "[23]": {"details": "systemic / in life observation / body weight / body weight + systemic / in life observation / body weight / body weight gain + systemic / in…"}, "[24]": {"details": "group: developmental, developmental / developmental malformation / bone / full supernumerary"}, "[25]": {"details": "group: developmental, developmental / developmental malformation / bone / full supernumerary + systemic / in life observation / body weight / fetal weight"}, "[26]": {"details": "systemic / organ weight / liver / absolute + systemic / organ weight / liver / relative to body weight + systemic / pathology microscopic / …"}},
  "data": [
    {"compound": "CCCOCC(=Nc1ccc(Cl)cc1C(F)(F)F)n1ccnc1", "note": "[Triflumizole]", "values": [
      {"measurement": "LOAEL", "setting": "[1]; group: offspring, developmental / developmental malformation / trunk / [other] + developmental / developmental malformation / ureter / hydroureter", "value": 8.5, "unit": "mg/kg/day"},
      {"measurement": "LEL", "setting": "[1]; [11]", "value": 8.5, "unit": "mg/kg/day"},
      {"measurement": "NEL", "setting": "[1]; [11]", "value": 3.5, "unit": "mg/kg/day"},
      {"measurement": "NOAEL", "setting": "[1]; [11]", "value": 3.5, "unit": "mg/kg/day"},
      {"measurement": "LOAEL", "setting": "[1]; [12]", "value": "> 8.5", "unit": "mg/kg/day"},
      {"measurement": "NOAEL", "setting": "[1]; [12]", "value": "≥ 8.5", "unit": "mg/kg/day"},
      {"measurement": "LEL", "setting": "[1]; [13]", "value": 1.5, "unit": "mg/kg/day"},
      {"measurement": "NEL", "setting": "[1]; [13]", "value": "< 1.5", "unit": "mg/kg/day"},
      {"measurement": "NOAEL", "setting": "[1]; group: reproductive, reproductive / reproductive performance / gestational length / gestational length", "value": 3.5, "unit": "mg/kg/day"},
      {"measurement": "LOAEL", "setting": "[1]; group: reproductive, reproductive / reproductive performance / gestational length / gestational length + reproductive / offspring survival early / litter size / …", "value": 8.5, "unit": "mg/kg/day"},
      {"measurement": "NEL", "setting": "[1]; group: reproductive, reproductive / reproductive performance / gestational length / gestational length + reproductive / reproductive performance / mating / …", "value": 1.5, "unit": "mg/kg/day"},
      {"measurement": "LEL", "setting": "[1]; group: reproductive, reproductive / reproductive performance / mating / mating", "value": 3.5, "unit": "mg/kg/day"},
      {"measurement": "LEL", "setting": "[2]; [14]", "value": 14.4, "unit": "mg/kg/day"},
      {"measurement": "LOAEL", "setting": "[2]; [14]", "value": "> 59.4", "unit": "mg/kg/day"},
      {"measurement": "NEL", "setting": "[2]; [14]", "value": 3.5, "unit": "mg/kg/day"},
      {"measurement": "NOAEL", "setting": "[2]; [14]", "value": "≥ 59.4", "unit": "mg/kg/day"},
      {"measurement": "LOAEL", "setting": "[2]; [15]", "value": 3.5, "unit": "mg/kg/day"},
      {"measurement": "NOAEL", "setting": "[2]; [15]", "value": "< 3.5", "unit": "mg/kg/day"},
      {"measurement": "LEL", "setting": "[2]; [16]", "value": 3.5, "unit": "mg/kg/day"},
      {"measurement": "NEL", "setting": "[2]; [16]", "value": "< 3.5", "unit": "mg/kg/day"},
      {"measurement": "LEL", "setting": "[3]; [17]", "value": 35, "unit": "mg/kg/day"},
      {"measurement": "LOAEL", "setting": "[3]; [17]", "value": 35, "unit": "mg/kg/day"},
      {"measurement": "NEL", "setting": "[3]; [18]", "value": 10, "unit": "mg/kg/day"},
      {"measurement": "NOAEL", "setting": "[3]; [18]", "value": 10, "unit": "mg/kg/day"},
      {"measurement": "LEL", "setting": "[3]; [19]", "value": 35, "unit": "mg/kg/day"},
      {"measurement": "LOAEL", "setting": "[3]; [19]", "value": 35, "unit": "mg/kg/day"},
      {"measurement": "NEL", "setting": "[3]; [19]", "value": 10, "unit": "mg/kg/day"},
      {"measurement": "NOAEL", "setting": "[3]; [19]", "value": 10, "unit": "mg/kg/day"},
      {"measurement": "LEL", "setting": "[4]; [20]", "value": 4.1, "unit": "mg/kg/day"},
      {"measurement": "NEL", "setting": "[4]; [20]", "value": "< 4.1", "unit": "mg/kg/day"},
      {"measurement": "LOAEL", "setting": "[4]; systemic / pathology microscopic / liver / hypertrophy + systemic / pathology microscopic / liver / vacuolization", "value": 40.9, "unit": "mg/kg/day"},
      {"measurement": "NOAEL", "setting": "[4]; systemic / pathology microscopic / liver / hypertrophy + systemic / pathology microscopic / liver / vacuolization + systemic / hematology / …", "value": 4.1, "unit": "mg/kg/day"},
      {"measurement": "LEL", "setting": "[5]", "value": 34.1, "unit": "mg/kg/day"},
      {"measurement": "LOAEL", "setting": "[5]", "value": 34.1, "unit": "mg/kg/day"},
      {"measurement": "NEL", "setting": "[5]", "value": 10, "unit": "mg/kg/day"},
      {"measurement": "NOAEL", "setting": "[5]", "value": 10, "unit": "mg/kg/day"},
      {"measurement": "LEL", "setting": "[6]; [21]", "value": 1.4, "unit": "mg/kg/day"},
      {"measurement": "NEL", "setting": "[6]; [21]", "value": "< 1.4", "unit": "mg/kg/day"},
      {"measurement": "LOAEL", "setting": "[6]; [22]", "value": 176, "unit": "mg/kg/day"},
      {"measurement": "NOAEL", "setting": "[6]; [22]", "value": 15.3, "unit": "mg/kg/day"},
      {"measurement": "LOAEL", "setting": "[7]; systemic / in life observation / body weight / body weight + systemic / in life observation / body weight / body weight gain", "value": 381, "unit": "mg/kg/day"},
      {"measurement": "LEL", "setting": "[7]; [23]", "value": 381, "unit": "mg/kg/day"},
      {"measurement": "NEL", "setting": "[7]; [23]", "value": 33.1, "unit": "mg/kg/day"},
      {"measurement": "NOAEL", "setting": "[7]; [23]", "value": 33.1, "unit": "mg/kg/day"},
      {"measurement": "LEL", "setting": "[8]; [24]", "value": 100, "unit": "mg/kg/day"},
      {"measurement": "LOAEL", "setting": "[8]; [24]", "value": 100, "unit": "mg/kg/day"},
      {"measurement": "NEL", "setting": "[8]; [25]", "value": 50, "unit": "mg/kg/day"},
      {"measurement": "NOAEL", "setting": "[8]; [25]", "value": 50, "unit": "mg/kg/day"},
      {"measurement": "LEL", "setting": "[8]; [19]", "value": 100, "unit": "mg/kg/day"},
      {"measurement": "LOAEL", "setting": "[8]; [19]", "value": 100, "unit": "mg/kg/day"},
      {"measurement": "NEL", "setting": "[8]; [19]", "value": 50, "unit": "mg/kg/day"},
      {"measurement": "NOAEL", "setting": "[8]; [19]", "value": 50, "unit": "mg/kg/day"},
      {"measurement": "LOAEL", "setting": "[9]; [26]", "value": 397, "unit": "mg/kg/day"},
      {"measurement": "NEL", "setting": "[9]; [26]", "value": 3.8, "unit": "mg/kg/day"},
      {"measurement": "NOAEL", "setting": "[9]; [26]", "value": 40.3, "unit": "mg/kg/day"},
      {"measurement": "LEL", "setting": "[9]; systemic / organ weight / liver / relative to body weight + systemic / urinalysis / glucose / glucose", "value": 40.3, "unit": "mg/kg/day"},
      {"measurement": "LEL", "setting": "[10]", "value": 67.4, "unit": "mg/kg/day"},
      {"measurement": "LOAEL", "setting": "[10]", "value": 67.4, "unit": "mg/kg/day"},
      {"measurement": "NEL", "setting": "[10]", "value": 16.2, "unit": "mg/kg/day"},
      {"measurement": "NOAEL", "setting": "[10]", "value": 16.2, "unit": "mg/kg/day"}
    ]}
  ]
}
